The source made the active and inactive calls.
Columns and labels:
[1] = target: Serine/threonine-protein phosphatase (Homo sapiens, UniProt Q9BPW0); test: PP5 phosphatase inhibitors, dose response, biochemical, fluorescence (AID 2395)
[2] = AlphaScreen signal interference compounds, dose response, artefact control for ARNT-TACC3 interaction inhibitor project, biochemical, luminescence, cherry-pick (AID 651705); type: functional;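 also: AlphaScreen bead proximity signal that flags compounds interfering with the detection technology; potency reflects signal decrease which marks the compound as an assay artifact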
[3] = target: Lysine-specific demethylase 4C (Homo sapiens, UniProt Q9H3R0); test: GASC-1 (JMJD2C) histone demethylase inhibitors, dose response, biochemical, DELFIA europium, cherry-picked samples (AID 488835); type: functional
[4] = target: Serine/threonine-protein phosphatase PP1-alpha catalytic subunit (Homo sapiens, UniProt P62136); test: PP1 phosphatase inhibitors, dose response, biochemical, fluorescence (AID 2394)
[5] = target: Nucleotide-binding oligomerization domain-containing protein 1 (Homo sapiens, UniProt Q9Y239); test: NOD1 signaling inhibitors, SAR follow-up, revised (AID 2333); type: functional
[6] = system: HEK293; test: cells; details: Homo sapiens;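 also: cells exposed to compound for 14 hours overnight before viability readout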
[7] = target: Nucleotide-binding oligomerization domain-containing protein 2 (Homo sapiens, UniProt Q9HC29); test: PubChem AID 2334; type: functional
[8] = target: Tumor necrosis factor (Homo sapiens, UniProt P01375); test: TNFa-triggered NF-kB activation inhibitors, SAR follow-up, cell-based, revised (AID 2337); type: functional
[9] = target: T1, Tyrosine-protein phosphatase non-receptor type 7 (Homo sapiens, UniProt P35236); type: functional
T1 sequence (P35236 whole entry): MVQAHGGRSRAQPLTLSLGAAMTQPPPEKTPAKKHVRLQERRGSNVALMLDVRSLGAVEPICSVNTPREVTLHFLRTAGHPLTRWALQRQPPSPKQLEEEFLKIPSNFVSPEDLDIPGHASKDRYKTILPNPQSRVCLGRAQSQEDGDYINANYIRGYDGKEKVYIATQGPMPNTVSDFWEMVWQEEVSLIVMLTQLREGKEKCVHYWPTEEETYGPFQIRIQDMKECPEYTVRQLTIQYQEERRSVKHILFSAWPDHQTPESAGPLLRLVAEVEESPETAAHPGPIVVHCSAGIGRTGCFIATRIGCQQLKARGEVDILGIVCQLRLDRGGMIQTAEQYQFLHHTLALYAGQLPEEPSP

[10] = target: T2, Tyrosine-protein phosphatase non-receptor type 22 (Homo sapiens, UniProt Q9Y2R2); type: functional
[11] = target: T2, Tyrosine-protein phosphatase non-receptor type 22; type: functional; remark: listed apart in the source
[12] = target: Transitional endoplasmic reticulum ATPase (Homo sapiens, UniProt P55072); test: p97 ATPase inhibitors, dose response, biochemical (AID 1534)
[13] = target: T3, SUMO-activating enzyme (Homo sapiens, UniProt Q9UBT2); test: SUMOylation inhibitor hit validation, confirmation, SUMOylation inhibitor project, biochemical, AlphaScreen (AID 2018); type: functional
[14] = target: T3, SUMO-activating enzyme; test: inhibitors of in vitro SUMOylation cascade, primary screen, biochemical, HTRF, uHTS (AID 2006); type: protein-complex assay
[15] = target: DNA (cytosine-5)-methyltransferase 1 (Homo sapiens, UniProt P26358); test: DNMT1 methyltransferase inhibitors, confirmation, biochemical, fluorescent molecular beacon (AID 602386); type: functional
[16] = target: ORF 73 (Human herpesvirus 8, UniProt O40947); test: inhibitors of C-LANA binding to LBS DNA, dose response, biochemical, fluorescence polarization, cherry-picked samples (AID 504725); design: species or system Human gammaherpesvirus 8;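 also: fluorescence polarization of a labeled DNA duplex reporting LANA DNA binding; potency is for inhibitors that block LANA binding to the DNA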
[17] = target: T4, Aminopeptidase N (Plasmodium falciparum FcB1/Columbia, UniProt O96935); test: P. falciparum M1AAP inhibitors, biochemical, fluorogenic H-Leu-NHMec substrate, 1536-well (AID 1445); design: species or system Plasmodium falciparum 3D7, 3D7
T4 sequence (O96935 whole entry): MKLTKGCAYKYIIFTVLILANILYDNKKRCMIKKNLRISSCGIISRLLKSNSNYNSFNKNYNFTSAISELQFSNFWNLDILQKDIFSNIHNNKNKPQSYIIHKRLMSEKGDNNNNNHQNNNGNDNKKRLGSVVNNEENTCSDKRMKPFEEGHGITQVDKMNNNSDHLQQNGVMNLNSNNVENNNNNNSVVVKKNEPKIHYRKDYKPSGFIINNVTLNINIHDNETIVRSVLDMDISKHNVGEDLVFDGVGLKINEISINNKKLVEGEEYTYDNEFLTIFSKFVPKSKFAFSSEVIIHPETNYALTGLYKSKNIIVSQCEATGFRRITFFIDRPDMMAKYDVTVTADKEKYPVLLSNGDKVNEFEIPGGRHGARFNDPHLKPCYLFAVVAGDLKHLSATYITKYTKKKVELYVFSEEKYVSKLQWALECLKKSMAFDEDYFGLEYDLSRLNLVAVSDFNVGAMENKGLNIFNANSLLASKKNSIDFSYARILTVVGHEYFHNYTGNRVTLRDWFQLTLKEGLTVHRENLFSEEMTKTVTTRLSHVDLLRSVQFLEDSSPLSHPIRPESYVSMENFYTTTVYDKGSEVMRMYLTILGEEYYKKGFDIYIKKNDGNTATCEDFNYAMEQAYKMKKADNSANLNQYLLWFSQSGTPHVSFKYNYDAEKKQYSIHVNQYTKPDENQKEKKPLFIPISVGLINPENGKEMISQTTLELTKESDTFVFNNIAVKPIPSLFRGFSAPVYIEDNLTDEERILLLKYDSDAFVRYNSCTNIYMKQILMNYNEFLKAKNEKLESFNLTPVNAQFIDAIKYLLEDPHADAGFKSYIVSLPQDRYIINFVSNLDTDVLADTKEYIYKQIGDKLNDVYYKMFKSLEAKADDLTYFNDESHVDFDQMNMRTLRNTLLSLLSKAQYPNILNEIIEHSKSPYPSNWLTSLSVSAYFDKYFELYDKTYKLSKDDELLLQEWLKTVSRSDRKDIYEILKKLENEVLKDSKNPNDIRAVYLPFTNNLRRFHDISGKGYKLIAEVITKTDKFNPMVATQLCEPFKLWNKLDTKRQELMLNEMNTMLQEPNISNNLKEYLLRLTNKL

[18] = target: Transitional endoplasmic reticulum ATPase (Homo sapiens, UniProt P55072, C522A); test: C522A mutant p97 ATPase inhibitors, dose response, counter-screen for p97 inhibitor project, biochemical, luminescence (AID 1544)
[19] = target: T5, Voltage-gated N-type calcium channel alpha-1B subunit/Amyloid beta A4 precursor protein-binding family A member 1 (Homo sapiens, UniProt Q00975+Q02410); type: protein assay
[20] = target: T6, Histone-lysine N-methyltransferase NSD2 (Homo sapiens, UniProt O96028); type: biochemical
T6 sequence (O96028 whole entry): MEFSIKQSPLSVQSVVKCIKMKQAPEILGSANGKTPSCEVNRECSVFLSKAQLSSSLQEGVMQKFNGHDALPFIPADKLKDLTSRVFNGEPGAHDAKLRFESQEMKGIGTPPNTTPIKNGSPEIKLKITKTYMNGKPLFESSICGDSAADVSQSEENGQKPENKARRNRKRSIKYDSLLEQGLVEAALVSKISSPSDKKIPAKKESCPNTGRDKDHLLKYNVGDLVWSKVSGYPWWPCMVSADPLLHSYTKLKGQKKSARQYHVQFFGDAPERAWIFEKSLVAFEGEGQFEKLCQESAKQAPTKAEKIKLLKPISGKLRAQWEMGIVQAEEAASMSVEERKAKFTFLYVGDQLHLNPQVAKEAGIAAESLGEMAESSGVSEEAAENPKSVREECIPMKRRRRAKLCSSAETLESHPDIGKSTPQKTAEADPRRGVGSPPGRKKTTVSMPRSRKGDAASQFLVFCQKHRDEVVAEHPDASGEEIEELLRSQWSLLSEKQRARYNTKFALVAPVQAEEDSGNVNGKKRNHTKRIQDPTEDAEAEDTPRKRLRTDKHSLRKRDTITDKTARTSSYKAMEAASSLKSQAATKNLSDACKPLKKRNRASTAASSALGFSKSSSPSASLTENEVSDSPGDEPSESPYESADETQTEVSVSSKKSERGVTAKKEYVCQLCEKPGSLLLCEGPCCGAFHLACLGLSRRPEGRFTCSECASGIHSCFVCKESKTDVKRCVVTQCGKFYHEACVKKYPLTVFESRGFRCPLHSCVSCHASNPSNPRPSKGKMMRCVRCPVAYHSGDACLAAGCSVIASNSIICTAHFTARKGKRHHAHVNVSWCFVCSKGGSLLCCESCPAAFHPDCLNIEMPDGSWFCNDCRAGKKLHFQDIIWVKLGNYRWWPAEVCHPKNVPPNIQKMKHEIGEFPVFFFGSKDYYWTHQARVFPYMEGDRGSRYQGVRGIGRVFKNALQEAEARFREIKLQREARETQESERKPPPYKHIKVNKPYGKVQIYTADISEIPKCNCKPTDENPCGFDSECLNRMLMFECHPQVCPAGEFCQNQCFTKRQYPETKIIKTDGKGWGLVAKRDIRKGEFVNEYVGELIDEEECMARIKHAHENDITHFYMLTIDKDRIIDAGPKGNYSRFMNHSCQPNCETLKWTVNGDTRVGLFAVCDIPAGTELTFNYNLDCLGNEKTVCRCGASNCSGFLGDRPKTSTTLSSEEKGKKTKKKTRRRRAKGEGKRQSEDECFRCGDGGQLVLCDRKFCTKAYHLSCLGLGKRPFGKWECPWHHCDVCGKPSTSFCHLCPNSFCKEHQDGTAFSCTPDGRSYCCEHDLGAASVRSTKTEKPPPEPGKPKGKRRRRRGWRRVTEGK

[21] = target: Genome polyprotein (dengue virus type 2, UniProt P29990); test: Dengue-2 NS5 methyltransferase inhibitors, primary screen, biochemical, confirmation dose response (AID 588689); type: functional
[22] = target: SUMO E1/E2 (Homo sapiens, UniProt P63279+Q9UBE0+Q9UBT2); test: SAR analysis of SUMOylation using HTRF in an in-Vitro dose response assay. [Related pubchem assays (depositor defined):AID2006, AID2011, AID2018, AID2069, AID2658]; type: functional
[23] = target: T7, Caspase-6 (Homo sapiens, UniProt P55212); test: human caspase-6 inhibitors, dose response, biochemical, VEID-R110 fluorescence, cherry-pick (AID 720632)
T7 sequence (P55212 whole entry): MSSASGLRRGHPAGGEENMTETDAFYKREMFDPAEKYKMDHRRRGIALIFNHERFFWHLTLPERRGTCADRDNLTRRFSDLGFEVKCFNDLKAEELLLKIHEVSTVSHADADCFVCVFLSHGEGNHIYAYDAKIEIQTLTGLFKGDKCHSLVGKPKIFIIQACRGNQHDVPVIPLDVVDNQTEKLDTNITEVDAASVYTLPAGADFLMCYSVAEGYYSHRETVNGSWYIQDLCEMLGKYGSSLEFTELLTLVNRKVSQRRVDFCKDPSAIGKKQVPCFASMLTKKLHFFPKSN

[24] = target: T5, Voltage-gated N-type calcium channel alpha-1B subunit/Amyloid beta A4 precursor protein-binding family A member 1; type: protein assay; remark: listed apart in the source
[25] = target: Induced myeloid leukemia cell differentiation protein Mcl-1 (Homo sapiens, UniProt Q07820); type: functional
[26] = target: Mu-type opioid receptor (Homo sapiens, UniProt P35372); test: SAR Analysis of Agonists of the MOR Receptor using an Image-Based Assay - Set 3. [Related pubchem assays (depositor defined):AID1777, AID1785, AID1786, AID1966, AID2133, AID2136, AID2284, AID2285, AID2352]; type: functional
[27] = target: Delta-type opioid receptor (Homo sapiens, UniProt P41143); test: SAR Analysis of Agonists of the DOR Receptor using an Image-Based Assay - Set 3. [Related pubchem assays (depositor defined):AID1777, AID1786]; type: functional
[28] = target: T8, Kappa-type opioid receptor (Homo sapiens, UniProt P41145); test: SAR analysis of small molecule agonists of the kappa opioid receptor via a luminescent beta-arrestin assay - Set 3. [Related pubchem assays (depositor defined):AID1777, AID1785, AID1786, AID1966, AID2133, AID2136, AID2284, AID2500]; type: functional
[29] = target: T8, Kappa-type opioid receptor; test: KOR agonist analogs, arrestin-GFP redistribution, SAR follow-up, imaging, image-based, set 3 (AID 488833); type: functional

T5 sequence (Q00975 whole entry): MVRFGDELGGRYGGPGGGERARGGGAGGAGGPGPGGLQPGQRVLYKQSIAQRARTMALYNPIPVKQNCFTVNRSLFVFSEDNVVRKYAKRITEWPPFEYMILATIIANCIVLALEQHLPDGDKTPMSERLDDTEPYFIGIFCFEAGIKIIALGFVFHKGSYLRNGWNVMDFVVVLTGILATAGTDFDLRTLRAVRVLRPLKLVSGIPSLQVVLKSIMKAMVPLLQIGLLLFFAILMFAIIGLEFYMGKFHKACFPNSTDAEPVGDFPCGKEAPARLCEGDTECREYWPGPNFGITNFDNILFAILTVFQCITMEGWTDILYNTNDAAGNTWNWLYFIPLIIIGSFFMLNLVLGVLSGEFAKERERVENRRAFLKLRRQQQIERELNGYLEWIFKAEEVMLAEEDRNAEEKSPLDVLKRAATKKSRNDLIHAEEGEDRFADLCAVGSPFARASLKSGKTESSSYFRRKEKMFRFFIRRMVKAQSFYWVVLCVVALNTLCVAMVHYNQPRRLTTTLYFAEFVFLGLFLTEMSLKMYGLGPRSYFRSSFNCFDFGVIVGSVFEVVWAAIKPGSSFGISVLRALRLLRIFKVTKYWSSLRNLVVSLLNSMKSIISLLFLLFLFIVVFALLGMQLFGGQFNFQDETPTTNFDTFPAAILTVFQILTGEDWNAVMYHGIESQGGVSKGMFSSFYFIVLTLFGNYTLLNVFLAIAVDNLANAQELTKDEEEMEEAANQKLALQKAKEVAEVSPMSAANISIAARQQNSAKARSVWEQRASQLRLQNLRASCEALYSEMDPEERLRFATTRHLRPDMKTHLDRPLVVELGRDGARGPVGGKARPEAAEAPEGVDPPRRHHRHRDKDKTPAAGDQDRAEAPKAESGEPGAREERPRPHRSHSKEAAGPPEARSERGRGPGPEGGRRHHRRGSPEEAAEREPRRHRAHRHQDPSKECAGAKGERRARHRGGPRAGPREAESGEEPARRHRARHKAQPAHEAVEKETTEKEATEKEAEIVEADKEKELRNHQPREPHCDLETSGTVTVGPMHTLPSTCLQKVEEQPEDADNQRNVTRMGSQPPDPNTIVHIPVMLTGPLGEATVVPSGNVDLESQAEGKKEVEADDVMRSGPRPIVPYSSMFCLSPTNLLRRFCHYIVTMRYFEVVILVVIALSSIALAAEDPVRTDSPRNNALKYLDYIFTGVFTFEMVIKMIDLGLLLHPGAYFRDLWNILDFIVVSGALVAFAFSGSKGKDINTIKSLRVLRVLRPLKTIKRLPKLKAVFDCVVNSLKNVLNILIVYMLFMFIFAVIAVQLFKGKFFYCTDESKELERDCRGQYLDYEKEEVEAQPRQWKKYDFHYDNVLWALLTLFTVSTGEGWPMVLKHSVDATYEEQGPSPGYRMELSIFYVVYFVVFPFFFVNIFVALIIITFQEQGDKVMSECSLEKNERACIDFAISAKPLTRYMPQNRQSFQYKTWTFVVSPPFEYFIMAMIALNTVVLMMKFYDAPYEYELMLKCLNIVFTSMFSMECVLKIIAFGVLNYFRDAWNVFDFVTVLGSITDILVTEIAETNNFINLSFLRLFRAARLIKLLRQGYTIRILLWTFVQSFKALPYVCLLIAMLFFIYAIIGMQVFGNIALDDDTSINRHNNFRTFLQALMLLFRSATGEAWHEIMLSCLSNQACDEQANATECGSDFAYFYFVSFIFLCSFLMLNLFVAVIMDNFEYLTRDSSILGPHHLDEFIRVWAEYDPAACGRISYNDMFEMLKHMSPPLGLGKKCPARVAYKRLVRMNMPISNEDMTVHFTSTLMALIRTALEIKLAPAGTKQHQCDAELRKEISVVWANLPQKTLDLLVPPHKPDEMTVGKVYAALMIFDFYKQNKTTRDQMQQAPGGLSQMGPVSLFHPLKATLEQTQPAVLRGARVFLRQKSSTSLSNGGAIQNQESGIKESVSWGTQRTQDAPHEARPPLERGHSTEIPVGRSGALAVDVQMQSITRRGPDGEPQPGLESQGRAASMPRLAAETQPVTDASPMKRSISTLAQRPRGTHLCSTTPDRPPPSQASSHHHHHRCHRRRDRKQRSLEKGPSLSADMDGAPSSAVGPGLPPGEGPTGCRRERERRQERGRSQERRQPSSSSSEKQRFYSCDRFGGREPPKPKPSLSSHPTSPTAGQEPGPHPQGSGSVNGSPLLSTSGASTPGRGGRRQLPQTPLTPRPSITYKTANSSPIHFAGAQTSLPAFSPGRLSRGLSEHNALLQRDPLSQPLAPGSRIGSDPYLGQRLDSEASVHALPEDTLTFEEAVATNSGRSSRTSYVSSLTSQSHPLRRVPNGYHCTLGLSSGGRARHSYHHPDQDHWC
T5 sequence (Q02410 whole entry): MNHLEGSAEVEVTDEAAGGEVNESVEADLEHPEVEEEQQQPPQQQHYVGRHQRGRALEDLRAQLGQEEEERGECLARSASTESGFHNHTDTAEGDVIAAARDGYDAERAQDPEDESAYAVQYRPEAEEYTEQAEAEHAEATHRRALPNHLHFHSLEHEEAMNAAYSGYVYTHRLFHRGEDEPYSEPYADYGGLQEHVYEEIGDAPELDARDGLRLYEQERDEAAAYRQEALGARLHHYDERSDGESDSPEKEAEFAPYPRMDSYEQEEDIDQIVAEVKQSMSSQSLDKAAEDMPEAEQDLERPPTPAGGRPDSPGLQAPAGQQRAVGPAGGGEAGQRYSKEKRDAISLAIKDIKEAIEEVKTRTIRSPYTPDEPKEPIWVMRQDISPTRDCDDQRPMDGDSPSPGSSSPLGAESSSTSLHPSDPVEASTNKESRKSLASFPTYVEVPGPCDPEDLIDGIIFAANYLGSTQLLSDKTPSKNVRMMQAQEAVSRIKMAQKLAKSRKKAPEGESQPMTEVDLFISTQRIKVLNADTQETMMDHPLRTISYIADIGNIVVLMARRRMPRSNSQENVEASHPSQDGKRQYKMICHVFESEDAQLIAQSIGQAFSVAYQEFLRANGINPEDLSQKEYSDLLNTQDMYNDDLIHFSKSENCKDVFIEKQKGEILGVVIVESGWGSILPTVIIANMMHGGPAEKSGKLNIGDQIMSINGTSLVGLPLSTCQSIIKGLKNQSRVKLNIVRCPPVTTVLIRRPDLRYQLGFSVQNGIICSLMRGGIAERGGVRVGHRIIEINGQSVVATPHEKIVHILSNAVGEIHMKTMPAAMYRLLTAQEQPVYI
T8 sequence (P41145 whole entry): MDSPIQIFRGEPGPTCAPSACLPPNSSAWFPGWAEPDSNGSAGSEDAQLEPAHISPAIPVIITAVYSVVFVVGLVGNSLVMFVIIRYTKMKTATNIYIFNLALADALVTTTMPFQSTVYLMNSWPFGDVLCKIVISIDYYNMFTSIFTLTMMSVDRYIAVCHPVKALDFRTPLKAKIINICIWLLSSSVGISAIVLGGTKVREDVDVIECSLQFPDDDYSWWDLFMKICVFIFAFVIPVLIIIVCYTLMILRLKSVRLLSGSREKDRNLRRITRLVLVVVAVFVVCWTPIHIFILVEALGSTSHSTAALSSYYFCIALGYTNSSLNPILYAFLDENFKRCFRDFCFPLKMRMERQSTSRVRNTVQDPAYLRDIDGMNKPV
T3 sequence (Q9UBE0 whole entry): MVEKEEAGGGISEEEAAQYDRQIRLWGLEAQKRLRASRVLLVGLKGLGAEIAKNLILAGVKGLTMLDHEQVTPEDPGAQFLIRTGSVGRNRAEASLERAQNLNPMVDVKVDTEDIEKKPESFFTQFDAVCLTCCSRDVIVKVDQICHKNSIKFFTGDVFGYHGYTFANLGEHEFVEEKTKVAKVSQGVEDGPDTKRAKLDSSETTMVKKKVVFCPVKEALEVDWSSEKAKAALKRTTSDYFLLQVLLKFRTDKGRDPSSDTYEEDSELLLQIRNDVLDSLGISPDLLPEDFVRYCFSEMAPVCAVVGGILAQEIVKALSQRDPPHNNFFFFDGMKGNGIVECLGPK
T3 sequence (Q9UBT2 whole entry): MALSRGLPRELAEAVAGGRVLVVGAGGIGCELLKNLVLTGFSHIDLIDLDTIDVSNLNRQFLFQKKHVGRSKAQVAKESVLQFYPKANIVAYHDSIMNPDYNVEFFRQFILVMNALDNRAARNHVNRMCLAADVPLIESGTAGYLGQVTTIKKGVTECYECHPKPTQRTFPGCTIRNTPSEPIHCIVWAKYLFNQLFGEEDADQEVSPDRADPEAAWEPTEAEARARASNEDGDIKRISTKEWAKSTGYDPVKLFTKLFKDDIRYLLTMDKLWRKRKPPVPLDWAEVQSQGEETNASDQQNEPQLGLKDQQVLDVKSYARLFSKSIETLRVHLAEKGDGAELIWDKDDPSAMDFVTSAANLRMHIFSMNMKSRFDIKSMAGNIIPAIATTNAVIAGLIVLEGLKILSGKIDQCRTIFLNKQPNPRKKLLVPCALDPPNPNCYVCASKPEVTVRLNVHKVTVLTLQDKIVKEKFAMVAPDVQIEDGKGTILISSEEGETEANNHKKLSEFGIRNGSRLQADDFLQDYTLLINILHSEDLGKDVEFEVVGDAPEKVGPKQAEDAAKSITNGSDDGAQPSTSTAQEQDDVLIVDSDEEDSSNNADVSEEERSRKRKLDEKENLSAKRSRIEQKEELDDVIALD
Sequence of SUMO E1/E2 (Q9UBE0 whole entry): as the sequence (Q9UBE0 whole entry) above
Sequence of SUMO E1/E2 (Q9UBT2 whole entry): as the sequence (Q9UBT2 whole entry) above
Sequence of SUMO E1/E2 (P63279 whole entry): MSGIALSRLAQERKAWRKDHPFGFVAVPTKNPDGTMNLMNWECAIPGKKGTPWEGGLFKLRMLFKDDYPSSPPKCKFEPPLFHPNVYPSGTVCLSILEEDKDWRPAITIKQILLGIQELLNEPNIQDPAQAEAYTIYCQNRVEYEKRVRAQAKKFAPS
Sequence of Tumor necrosis factor (P01375 whole entry): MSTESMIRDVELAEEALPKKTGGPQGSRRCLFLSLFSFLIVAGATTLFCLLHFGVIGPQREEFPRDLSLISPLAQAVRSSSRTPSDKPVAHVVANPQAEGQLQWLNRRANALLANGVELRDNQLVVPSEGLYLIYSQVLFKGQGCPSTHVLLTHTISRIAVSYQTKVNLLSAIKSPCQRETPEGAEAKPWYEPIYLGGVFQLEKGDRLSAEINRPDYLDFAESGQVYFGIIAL

O=[N+]([O-])c1ccc(O)c(-c2nn[nH]n2)c1
IC50 [1]: 44.5 µM (not active)
AC50 [2]: 121 µM (active)
AC50 [3]: 4.74 µM (active)
IC50 [4]: > 67 µM (not active)

Cc1ccc(C(=O)Nc2sc3c(c2C(=O)O)CCCC3)o1
IC50 [5]: > 20 µM (inactive)
IC50 [6]: > 20 µM (inactive)
IC50 [7]: > 20 µM (inactive)
IC50 [8]: > 20 µM (inactive)

Cc1cc(C)nc(NC(=O)c2cc(-c3ccc(C)s3)nc3ccccc23)c1
IC50 [9]: > 79.4 µM (inactive)
IC50 [10]: > 79.4 µM (inactive)
IC50 [11]: > 79.4 µM (inactive)

O=C(O)c1ccc(NS(=O)(=O)c2ccc3c(c2)C2C=CCC2C(c2ccccc2F)N3)cc1 (centres undefined)
IC50 [12]: 19 µM (not active)
IC50 [13]: 4.63 µM (active)
IC50 [14]: 19.5 µM (active)
IC50 [15]: 10.1 µM (active)
AC50 [16]: 109 µM (active)
IC50 [17]: 2.75 µM (active)
IC50 [18]: > 50 µM (not active)
IC50 [19]: > 56.8 µM (not active)
AC50 [20]: 10.2 µM (active)
IC50 [21]: 62.3 µM (active)
IC50 [22]: 35.3 µM (active)
AC50 [23]: 13.7 µM (active)
IC50 [24]: > 50 µM (inactive)
IC50 [25]: 2.58 µM (active)

Fc1cc(F)cc(CSc2nnc(-c3ccccn3)n2Cc2ccco2)c1
EC50 [26]: > 32 µM (inactive)
EC50 [27]: > 64 µM (inactive)
EC50 [28]: 7.89 µM (active)
EC50 [29]: 20.6 µM (inactive)

Reference: ChEMBL document CHEMBL1201862, “PubChem BioAssay data set” (2004)
